{
  "source": "paper PMC8386742",
  "about": "“Discovery of N-aryl sulphonamide-quinazoline derivatives as anti-gastric cancer agents in vitro and in vivo via activating the Hippo signalling pathway” (Journal of Enzyme Inhibition and Medicinal Chemistry, 2021)",
  "key": {"PC-3 cells": {"test_system": "PC-3 cells", "assay": "MTT antiproliferative assay, PC-3 cells", "assay_type": "cell-based, human", "settings": "Homo sapiens, PC-3, exposure for 48 h", "experimental": "(§1) The in vitro antiproliferative activities of new target compounds 6a–6g, 9a–9i, 10a–10j, 11a–11j, and 14a–14d were evaluated against four human cancer cell lines (MGC-803, PC-3, HCT-116, and MCF-7) using MTT assay and 5-FU as a positive drug. The following Tables 1–[4] depicted the results of in vitro antiproliferative activity.\n(§2) Cell lines used were cultured in humidified incubator in a humidified atmosphere of 5% CO2 and 95% air. The RPMI-1640 medium was supplemented with 10% foetal bovine serum, penicillin (100 U/ml) and streptomycin (0.1 mg/ml).\n(§3) Cell lines were seeded into 96-well plates and incubated for 24 h. Then cells were treated with different concentrations of compounds. And after another 48 h, MTT reagent (20 μL per well) was added to each well and then incubated at 37 °C for 4 h. After the suspension was discarded, formazan was then dissolved with DMSO. Absorbencies of formazan solution were measured at 490 nm. The IC50 values of tested compounds were calculated by SPSS version 17.0."}, "MCF-7 cells": {"test_system": "MCF-7 cells", "assay": "MTT antiproliferative assay, MCF-7 cells", "assay_type": "cell-based, human", "settings": "exposure for 48 h", "experimental": "as §1, §2, §3"}, "MGC-803 xenograft tumour": {"test_system": "MGC-803 xenograft tumour", "assay": "MGC-803 xenograft model", "assay_type": "in vivo, nude mice", "experimental": "When the tumour volume reached 100 mm^3, vehicle control, compound 9i, and 5-FU were administered by daily intraperitoneal injection for 21 consecutive days. During the treatment, tumour volume and body weight of nude mice were measured every 3 days from the beginning of treatment. […] Tumour weight was measured after the execution of animals, the inhibition rate of the compound 9i treated group was over 60% than the vehicle group (Figures 7(B,C)). Tunnel staining was used for cell apoptosis detection, as shown in Figure 7(D), compound 9i increased the level of cell apoptosis. […] Next, the levels of YAP, Bcl-2, c-Myc, Ki67, and cleaved PARP in tissues were detected using immunochemistry to validate the results. […] The data indicated compound 9i inhibited YAP to inhibit the tumour in vivo.\nA human gastric cancer subcutaneous transplantation tumour model was established with MGC-803 cells. After the tumour volume reaches 100 mm3 the MGC-803 bearing mice were randomised into 3 groups and intraperitoneal injection with normal saline or drugs continuously for 21 days. Tumour volume was measured every 3 days (Length × Width2/2). Mice were executed after treatment. 500 μL blood samples was collected each mouse, samples were then centrifuged at 2000 g for 10 min for biochemistry analysis. Tumour and organs tissues were harvested for H&E staining or immunochemistry detection. The experiments in the study were performed comply with the protocols approved by the Institutional Animal Care and Use Committee, Zhengzhou University."}, "tubulin": {"test_system": "tubulin", "assay": "Tubulin polymerization, extracellular", "assay_type": "biochemical", "settings": "3 μmol/L", "description": "In this work, compound 9i was design and synthesized by SAR study of our reported tertiary amide derivatives compound 1 and compound 2. Therefore, we tested the influence of compound 9i on tubulin polymerization and AKT/mTOR and ERK […]\ninfluence on tubulin polymerization and P38, ERK, AKT, mTOR and Wnt pathways . […]\npathway. Therefore, we here reported N-sulfonamide-quinazoline derivatives as novel anti-gastric cancer agents via activating the Hippo signaling pathway in vitro and in […]\nSupporting Figure S1. A. Activity of compound 9i on tubulin polymerization . Tubulin polymerization extracellular, concentrations of Paclitaxel, Colchicine and 9i were 3 μmol/L; Activity of compound 9i on P38, ERK, AKT, mTOR and Wnt pathways, cells were incubated with […]\n(1 picture or pasted object on this page, not shown here)"}},
  "data": [
    {"smiles": "COc1ccc(S(=O)(=O)N(Cc2nc(C)c3ccccc3n2)c2cc(OC)c(OC)c(OC)c2)cc1", "note": "[Compound 9i, 4-Methoxy-N-((4-methylquinazolin-2-yl)methyl)-N-(3,4,5-trimethoxyphenyl) benzene-sulfonamide]", "values": [
      {"measurement": "IC50", "setting": "PC-3 cells", "value": "1040 ± 130", "unit": "nM"},
      {"measurement": "IC50", "setting": "MCF-7 cells; Homo sapiens, MCF7, 48 h", "value": 816, "unit": "nM"},
      {"measurement": "IC50", "setting": "MCF-7 cells", "value": "810 ± 60", "unit": "nM"},
      {"measurement": "tumour growth (tumour volume)", "setting": "MGC-803 xenograft tumour; daily intraperitoneal injection for 21 days", "value": "inhibited tumour growth in vivo"},
      {"measurement": "tumour weight inhibition rate", "setting": "MGC-803 xenograft tumour; daily intraperitoneal injection for 21 days, versus vehicle group", "value": "over 60%"},
      {"measurement": "expression of YAP, Bcl-2 and c-Myc in tumour tissues", "setting": "MGC-803 xenograft tumour; tumour tissues after 21 days treatment", "value": "significantly down-regulated"},
      {"measurement": "influence on tubulin polymerization", "setting": "tubulin", "value": "no strong influence"}
    ]}
  ]
}
